# Data: patent US20020123524A1, “Treatment of vascular events using lipid-modifying compositions” (priority 1998, published 2002)
# Experiments:
# [1] = VA-HIT trial: CHD death, nonfatal MI, stroke and other clinical endpoints, adverse events; type: in vivo; conditions: for Relative risk reduction, CHD death/nonfatal MI (heart attacks and cardiac deaths): primary endpoint, p=0.0063
# Description: (§1) This study, the Veterans Administration HDL-C Intervention Trial (VA-HIT), was a seven year, 20 center, randomized, placebo-controlled, double blind secondary prevention trial designed to determine if a fibric acid (e.g., gemfibrozil) reduced the incidence of myocardial infarction (MI) and CHD death in male patients who have low levels of both HDL-C and LDL-C. […] Primary endpoints and the secondary endpoint, stroke, were adjudicated by blinded committees using standard criteria. Gemfibrozil (1200mg/day, orally) was selected with the goal of raising HDL-C and lowering triglycerides (TG) without affecting LDL-C.
# (§2) “Low HDL-C” was defined as less than 40 mg/dL and “low LDL-C” was defined as less than 140 mg/dL values which are based on the entrance lipid criteria for the population enrolled in VA-HIT. With these lipid criteria, the mean entrance value at baseline of HDL-C was 32 mg/dL and of LDL-C was 111 mg/dL.
# (§3) 2531 patients were enrolled and followed for a median of 5 years. Compliance, lipid changes, endpoints rates, losses to follow-up, and crossovers to active treatment have been consistent with the original projections. At baseline, the mean age was 64 yrs; average lipid values were, in mg/dL: HDL-C 32; TG 161; LDL-C 111; total cholesterol 176. (For comparison, the mean baseline LDL-C in recent major secondary prevention trials was 189 in the Scandinavian Simvastatin Survival Study, 139 in the Cholesterol and Recurrent Events study, and 150 in the Long-Term Intervention with Pravastatin in Ischemic Disease study). The mean body mass index was 29±5. The prevalence of diabetes was 31% and of hypertension 57%. Aspirin and beta blockers were used by 82%, and 43% of patients, respectively.
# (§4) VA-HIT was a major clinical trial to investigate whether lipid therapy benefits people with heart disease whose primary lipid abnormality is a low level of HDL-C. The VA-HIT study enrolled 2531 male veterans with heart disease who had low levels of LDL-C cholesterol and low levels of HDL-C cholesterol. The average LDL-C level was 111 mg/dL and HDL-C was 32 mg/dL. Patients were randomly assigned to receive either gemfibrozil or a placebo.
# The reduction in the incidence or severity of vascular disease was determined by comparing data from individuals undergoing the methods of the present invention to those who were not. Data regarding the incidence or occurrence of a vascular event including death were obtained from control patients having the same or similar disease states under the same or similar conditions as the individual undergoing the methods of the present invention. The control patient received a placebo, as opposed to the test patients who received the lipid modifying drug.
# (§5) 2531 men with CHD enrolled in trial 1991-1993. The trial ended 7/31/98 with median follow-up of 5.1 years. Vital status of patients known is 99.2%. 71% remained on assigned therapy at end of trial which is about the average in a long trial.
# [2] = VA-HIT trial: percent change in plasma lipids with gemfibrozil vs placebo; type: in vivo, men; conditions: for Effect on HDL-C level (in words): compared to controls treated with placebo
# Procedure: Lipoproteins levels and triglyceride levels are measured and assessed using routine methods known in the art. Commercially available kits and assays may be used to evaluate the level of HDL-C, LDL-C and level of triglyceride.
# as §1, §2, §3, §4, §5
# [3] = VA-HIT subgroup analysis: diabetes and hyperinsulinemia, CHD and stroke events, mortality; type: in vivo, men; set-up: Overall Risk Reduction with Gemfibrozil (cardiovascular or cerebrovascular event) / Overall Risk Reduction with Gemfibrozil: concentration or dose not given beside the values; conditions: for Five Year Event Rate, Stroke / Five Year Event Rate, CHD: Gemfibrozil Group
# Description: Determining whether an individual has Type 2 diabetes and/or hyperinsulinemia can be done using assays that are well known in the art. Several assays are commercially available. The levels that define whether an individual has Type 2 diabetes or hyperinsulinemia vary depending on the type of assay used. An example of an assay that can measure glucose tolerance or glucose levels is one that uses glucose oxidase as a reagent. Using such a test, levels of fasting glucose of greater than or equal to about 126 mg/dL characterize a type 2 diabetic. An assay referred to as “Coat-A-Count” (Diagnostic Products, Los Angeles, Calif.) is an example of an assay that measures insulin. Levels of fasting insulin above about 40 μU/mL using the Coat-A-Count assay are levels that characterize an individual with hyperinsulinemia. For the data described in Example 2, insulin resistance (hyperinsulinemia) was defined by the levels of insulin determined in the Framingham Offspring Population. Meigs J B, et al., Metabolic Risk Factors Worsen Continuously Across the Spectrum of Nondiabetic Glucose Tolerance, The Framingham Offspring Study. Ann Intern Med 128:524-533 (1998). Subjects, described in Example 2, were designated as diabetic by having a history of diabetes or a fasting plasma glucose of about 126 mg/dL or greater and as being hyperinsulinemic with a fasting plasma insulin of about 40 μU/mL or greater. This value of insulin marked the 90th percentile of values for subjects with normal glucose tolerance in the Framingham Offspring Study. This value also corresponded to the level of insulin at which there was a significant increase in CHD events in Example 2.
# Fibric acid decreases incidence of vascular events in diabetic patients (e.g., events that cause the heart to have irregular rhythms such as ventricular fibrillation, ventricular tachycardia, asystole, and includes, for example, myocardial infarction, angina, and death).
# Diabetes mellitus (DM) has long been recognized as a major risk factor for a vascular atherothrombotic event, most particularly coronary heart disease and cerebrovascular disease. […] Although patients with DM were not singled out as a specific recruitment target (i.e., not a specific target for fibrate therapy in VA-HIT), patients with DM frequently have a low HDL-C and, thus, were clearly eligible for VA-HIT and treatment with the fibrate, genfibrozil.
# Thus, 31% of VA-HIT patients had diabetes. […] There is evidence that patients with high insulin levels (i.e., patients with “hyperinsulinemia” or “insulin resistance”) but without overt DM have as high a risk of coronary heart disease as is associated with DM itself. Consequently, 47% of patients in VA-HIT had either DM or hyperinsulinemia and in this large subgroup of patients, both coronary heart disease (CHD) events and stroke were higher than in the remainder of VA-HIT patients and the benefit of fibrate therapy was greater.
# [4] = gemfibrozil 1200 mg/day orally, men with CHD, low HDL-C and low LDL-C, statistically significant difference vs placebo
smiles,measurement,setting,value
"Cc1ccc(C)c(OCCCC(C)(C)C(=O)O)c1 [Gemfibrozil, 5-(2,5-dimethylphenoxy)-2,2-dimethylpentanoic acid]",Effectiveness in subgroups (in words),"[1]; both diabetics and non-diabetics, younger as well as older patients",effective
same,"New or recurrent CHD events, including nonfatal MI, CHD death, certain forms of stroke or TIA (in words)",[1]; gemfibrozil 1200 mg/day,significant reduction
same,"Primary endpoint CHD death/nonfatal MI, rate in treatment group","[1]; gemfibrozil 1200 mg/day, median follow-up 5.1 years, placebo 22%",17%
same,Major adverse events (deaths from any cause and cancer monitored),"[1]; gemfibrozil 1200 mg/day, seven year study",not associated with any major adverse events
same,Incidence rate: carotid endarterectomy,"[1]; gemfibrozil group, placebo 3.5%",1.3%
same,Incidence rate: transient ischemia attack (TIA),"[1]; gemfibrozil group, placebo 4.2%",1.7%
same,Incidence rate: total reported stroke,"[1]; gemfibrozil group, placebo 7.0%",5.0%
same,Incidence rate: hospitalization for congestive heart failure,"[1]; gemfibrozil group, placebo 13.3%",10.6%
same,"Reduction in combined endpoint of heart attacks, cardiac deaths, and strokes","[1]; gemfibrozil vs placebo, p=0.0011",24%
same,"Relative risk reduction, CHD death/nonfatal MI (heart attacks and cardiac deaths)","[1]; gemfibrozil vs placebo, listed as GEMFIBROZIL",22%
same,"Relative risk reduction, CHD death/nonfatal MI (heart attacks and cardiac deaths)","[1]; gemfibrozil vs placebo, listed as gemfibrozil",22%
same,"Number of patients needed to be treated to prevent one heart attack, cardiac death, or stroke","[1]; over a time period (e.g., between 1 and 5 years)",18 patients
same,Effect on HDL-C level (in words),[2],significantly raised
same,Effect on HDL-C level (in words),[2]; listed as gemfibrozil,significantly increased
same,Effect on LDL-C level (in words),[2]; compared to placebo,did not lower
same,Effect on triglycerides (in words),[2]; compared to placebo,lowered
same,Effect on LDL-C level (in words),"[2]; compared to placebo, listed as gemfibrozil",no effect
same,Percent change in Lipids: LDL-C,"[2]; gemfibrozil 1200 mg/day orally, men with CHD, low HDL-C and low LDL-C, not marked significant",+3.6%
same,Percent change in Lipids: HDL-C,[2]; [4],+7.5%
same,Percent change in Lipids: Triglycerides,[2]; [4],−24.5%
same,Percent change in Lipids: total cholesterol,[2]; [4],−2.9%
same,"RRR (relative risk reduction with gemfibrozil), All-Cause Mortality","[3]; Diabetes + Hyperinsulinemia alone, N 1157, P 0.021",26%
same,"RRR (relative risk reduction with gemfibrozil), CHD Death","[3]; Diabetes, N 769, P 0.016",41%
same,"RRR (relative risk reduction with gemfibrozil), All-Cause Mortality","[3]; Diabetes, N 769, P 0.059",25%
same,"Five Year Event Rate, Stroke","[3]; subgroup All Others, placebo 4.0",3.2%
same,"Five Year Event Rate, CHD","[3]; subgroup All Others, placebo 16.6",15.3%
same,"Five Year Event Rate, Stroke","[3]; subgroup Diabetes, placebo 10.5",6.6%
same,"Five Year Event Rate, CHD","[3]; subgroup Diabetes, placebo 29.4",21.2%
same,"Five Year Event Rate, Stroke","[3]; subgroup Hyperinsulinemia (includes hyperinsulinemia + diabetes), placebo 8.1",6.2%
same,"Five Year Event Rate, CHD","[3]; subgroup Hyperinsulinemia (includes hyperinsulinemia + diabetes), placebo 27.7",20.9%
same,"Five Year Event Rate, Stroke","[3]; subgroup Hyperinsulinemia alone, placebo 4.3",4.7%
same,"Five Year Event Rate, CHD","[3]; subgroup Hyperinsulinemia alone, placebo 23.1",16.8%
same,5-year incidence rate of all-cause mortality (in words),[3]; patients with DM and isolated hyperinsulinemia analysed together,significantly reduce
same,Overall Risk Reduction with Gemfibrozil,[3]; subgroup All Others,10.3%
same,Overall Risk Reduction with Gemfibrozil (cardiovascular or cerebrovascular event),[3]; subgroup Diabetes,30.3%
same,Overall Risk Reduction with Gemfibrozil,[3]; subgroup Hyperinsulinemia (includes hyperinsulinemia + diabetes),24.2%
same,Overall Risk Reduction with Gemfibrozil,[3]; subgroup Hyperinsulinemia alone,21.7%
same,Reduction of CHD death (in words),[3]; subgroup of patients with DM and hyperinsulinemia,particularly effective
